From article PMC5570892, “Indole-based perenosins as highly potent HCl transporters and potential anti-cancer agents” (Scientific Reports, 2017) come the findings set out here.

Usually IC50 stands for the concentration needed to halve the response being measured.

The test system of one assay is MDA-MB-231 cells. Kind of assay: MTT cell viability assay. The class given is cell-based. The conditions noted are these: Homo sapiens, error from three repeats in brackets. As to the method:
Herein, we carried out further in vitro studies at the University of Barcelona for the full library of perenosins. Single dose screening for cell viability using the methylthiazoletetrazolium (MTT) colorimetric assay over five different cell lines (cancer cells MCF-7, MDA-MB-231, A549 and SW620, and non-cancerous human cells MCF-10A) was conducted.
While perenosin 5, with pentyl substituent at R3, has similar cell viability effects as 1d, bis-indole perenosin 7 with pentyl substituent at R1 has a moderate degree of late onset by a factor of 7.
S11.1 Cell Lines and Culture Conditions
The human cell lines were obtained from the American Type Culture Collection (ATCC, Manassas VA). Breast adenocarcinoma MDA-MB-231 and MCF-7 cells were maintained in DMEM:F12 media (1:1; Biological Industries, Beit Haemek, Israel), and 10 µg/ml insulin and 50 µM sodium pyruvate from Sigma-Aldrich Chemical Co. (St. Louis, MO) were added to MCF-7 cells. Lung adenocarcinoma A549 and colorectal adenocarcinoma SW620 cells were cultured in DMEM media. All were supplemented with 10% foetal bovine serum (FBS; Invitrogen-Life Technologies, Carlsbad, CA) and 100 U/mL penicillin, 100 µg/mL streptomycin and 2 mM L-glutamine, all from Biological Industries.
Mammary epithelial MCF-10A cells were maintained in DMEM:F12 media supplemented with 5% horse serum (Life Technologies), 20 ng/ml EGF, 0.5 µg/ml Hydrocortisone, 100 ng/ml Cholera toxin, 10 µg/ml insulin all from Sigma-Aldrich and 100 U/ml penicillin, 100 µg/ml streptomycin, and 2 mM L- glutamine (Biological Industries). Cells were grown at 37 °C under a 5% CO2 atmosphere.
S11.2 Cell Viability Assays
Cell viability was evaluated using the methylthiazoletetrazolium (MTT) colorimetric assay. Cancer cells (MCF-7, MDA-MB-231, A549 and SW620) or non-cancerous human cells MCF-10A cells were harvested (10^4 cells/well) in 96-well plates in a final volume of 100 µl and allowed to grow overnight.
After 24 h, vehicle solution (DMSO) or experimental compounds were added at 10 µM (single point experiment) or at different ranging concentrations (0.8-100 µM) to the assay plate and were incubated for 24 or 72 h. Then, 10 µl of MTT (5 mg/ml; Sigma-Aldrich) were added and the plates were incubated for 4 h at 37°C. 100 µl of DMSO (Sigma-Aldrich) were added to dissolve crystals and the reading was taken spectrophotometrically at 570 nm using a multi-well plate reader (Multiskan FC, Thermo Scientific, Waltham, MA, USA). Cell viability and inhibitory concentration (IC) values were obtained using GraphPad Prism v5.0 (Graphpad Software, San Diego, CA, USA). All data are shown as the mean value ± standard deviation (S.D.) of three independent experiments.
A general note: Formazan colour is commonly taken as a measure of viable cells.

Assay [1] in a line: HPTS assay with TBAOH (electrogenic H+ or OH- transport). The class given is biochemical. Particulars: sodium gluconate vesicles, pH 7.0; CCCP at 0.1 mol%; perenosins at loading giving 100% in NMDG-Cl assay. As to the method: S10.8. General Procedure for the HPTS Assay
Unilamellar vesicles were prepared using previously reported literature procedures16. A lipid film of POPC (1-palmitoyl-2-oleoyl-sn-glycero-3-phosphocholine) was prepared from a chloroform solution under reduced pressure and then dried under vacuum for 4 or more hours. The lipid film was rehydrated by vortexing with an internal solution containing HPTS (1 mM). The lipid suspension was then subjected to 9 freeze-thaw cycles and left to rest at room temperature for 30 minutes. After this, the suspension was extruded 25 times through a 200 nm polycarbonate membrane resulting in unilamellar vesicles of a mean diameter of 200 nm. The un-encapsulated HPTS was removed by size exclusion chromatography using a sephadex G-25 column and an external solution eluent that does not contain HPTS. […]
After 200 s, detergent (50 μL of Triton X-100 (11 w%) in H2O:DMSO (7:1 v/v)) was added to lyse the vesicles and after 5 mins a final reading was taken. […]
The fractional fluorescence intensity (If) was calculated using: […]
where Rt is the fluorescence ratio at time t, R0 is the fluorescence ratio at time 0 and Rd is the fluorescence ratio at the end of the experiment, after the addition of detergent. […]

Setting [2] is: MDA-MB-231, 24 h exposure, read-out: IC50 (24 h).
[3] abbreviates: MDA-MB-231, 72 h exposure, read-out: IC50 (72 h).

Read-outs that look alike come from different tables or passages of the source.

Take `Cc1cc(C)c(/C=N/c2cc(C(F)(F)F)cc3cc[nH]c23)[nH]1` [Perenosin 1b]: the half-inhibitory concentration (IC50) was determined as 32.2 µM in the assay with MDA-MB-231 cells (setting [2]) and 22.1 µM in the assay on MDA-MB-231 cells (setting [3]).
Consider `N#CC(C#N)=NNc1cccc(Cl)c1` [CCCP], for which the “H+ or OH- transport (TBAOH base pulse)” value in assay [1] came out at 100%.
On to `Cc1cc(C)c(/C=N/c2cccc3cc[nH]c23)[nH]1` [Perenosin 1a], for which the results for the IC50 in the assay on MDA-MB-231 cells (setting [2]) and with MDA-MB-231 cells (setting [3]) were 38.3 µM and 24.4 µM, respectively.
The like results for `COc1cc(/N=C/c2[nH]c(C)cc2C)c2[nH]ccc2c1` [Perenosin 1e] were, in that order, 38.4 µM and 32.7 µM.
The like results for `Cc1cc(/N=C/c2[nH]c(C)cc2C)c2[nH]ccc2c1` [Perenosin 1c] were, in that order, 34.4 µM and 20.4 µM.
